From ChEMBL document CHEMBL5532684, “Total Synthesis and Antibacterial Activity of Marine Tris-indole Alkaloid Tulongicin A” (2024)
Values after ≈ are worked out from the molar mass of the structure shown.

How the values were obtained:
Type in all cases: functional
[1] = system: Staphylococcus aureus; test: Bactericidal activity against methicillin susceptible Staphylococcus aureus clinical isolate 2 incubated overnight by CLSI protocol based assay; details: read-out: MBC>99.9
[2] = system: Escherichia coli; test: Bactericidal activity against Escherichia coli ATCC 25922 incubated overnight by CLSI protocol based assay; details: read-out: MBC>99.9
[3] = system: Staphylococcus aureus; test: Bactericidal activity against methicillin resistant Staphylococcus aureus clinical isolate 3 incubated overnight by CLSI protocol based assay; details: read-out: MBC>99.9
[4] = system: Staphylococcus aureus; test: Bactericidal activity against methicillin resistant Staphylococcus aureus clinical isolate 2 incubated overnight by CLSI protocol based assay; details: read-out: MBC>99.9
[5] = system: Staphylococcus aureus; test: Bactericidal activity against methicillin susceptible Staphylococcus aureus clinical isolate 5 incubated overnight by CLSI protocol based assay; details: read-out: MBC>99.9
[6] = system: Staphylococcus aureus; test: Antibacterial activity against methicillin susceptible Staphylococcus aureus clinical isolate 5 assessed as inhibition of bacterial growth incubated overnight by CLSI protocol based assay; details: read-out: MIC100
[7] = system: Staphylococcus aureus; test: Bactericidal activity against methicillin resistant Staphylococcus aureus clinical isolate 1 incubated overnight by CLSI protocol based assay; details: read-out: MBC>99.9
[8] = system: Staphylococcus aureus; test: Bactericidal activity against methicillin resistant Staphylococcus aureus clinical isolate 5 incubated overnight by CLSI protocol based assay; details: read-out: MBC>99.9
[9] = system: Staphylococcus aureus; test: Antibacterial activity against methicillin resistant Staphylococcus aureus clinical isolate 5 assessed as inhibition of bacterial growth incubated overnight by CLSI protocol based assay; details: read-out: MIC100
[10] = system: Staphylococcus aureus; test: Antibacterial activity against Staphylococcus aureus ATCC 29213 assessed as inhibition of bacterial growth incubated overnight by CLSI protocol based assay; details: read-out: MIC100
[11] = system: Staphylococcus aureus; test: Antibacterial activity against methicillin resistant Staphylococcus aureus clinical isolate 3 assessed as inhibition of bacterial growth incubated overnight by CLSI protocol based assay; details: read-out: MIC100
[12] = system: Staphylococcus aureus; test: Bactericidal activity against methicillin susceptible Staphylococcus aureus clinical isolate 4 incubated overnight by CLSI protocol based assay; details: read-out: MBC>99.9
[13] = system: Escherichia coli; test: Antibacterial activity against Escherichia coli ATCC 25922 assessed as inhibition of bacterial growth incubated overnight by CLSI protocol based assay; details: read-out: MIC100
[14] = system: Staphylococcus aureus; test: Antibacterial activity against methicillin susceptible Staphylococcus aureus clinical isolate 1 assessed as inhibition of bacterial growth incubated overnight by CLSI protocol based assay; details: read-out: MIC100
[15] = system: Staphylococcus aureus; test: Bactericidal activity against methicillin susceptible Staphylococcus aureus clinical isolate 1 incubated overnight by CLSI protocol based assay; details: read-out: MBC>99.9
[16] = system: Staphylococcus aureus; test: Antibacterial activity against methicillin susceptible Staphylococcus aureus clinical isolate 3 assessed as inhibition of bacterial growth incubated overnight by CLSI protocol based assay; details: read-out: MIC100
[17] = system: Staphylococcus aureus; test: Bactericidal activity against Staphylococcus aureus ATCC 29213 incubated overnight by CLSI protocol based assay; details: read-out: MBC>99.9
[18] = system: Staphylococcus aureus; test: Antibacterial activity against methicillin susceptible Staphylococcus aureus clinical isolate 2 assessed as inhibition of bacterial growth incubated overnight by CLSI protocol based assay; details: read-out: MIC100
[19] = system: Pseudomonas aeruginosa; test: Bactericidal activity against Pseudomonas aeruginosa ATCC 27853 incubated overnight by CLSI protocol based assay; details: read-out: MBC>99.9
[20] = system: Staphylococcus aureus; test: Antibacterial activity against methicillin resistant Staphylococcus aureus clinical isolate 2 assessed as inhibition of bacterial growth incubated overnight by CLSI protocol based assay; details: read-out: MIC100
[21] = system: Staphylococcus aureus; test: Antibacterial activity against methicillin resistant Staphylococcus aureus clinical isolate 4 assessed as inhibition of bacterial growth incubated overnight by CLSI protocol based assay; details: read-out: MIC100
[22] = system: Staphylococcus aureus; test: Antibacterial activity against methicillin susceptible Staphylococcus aureus clinical isolate 4 assessed as inhibition of bacterial growth incubated overnight by CLSI protocol based assay; details: read-out: MIC100
[23] = system: Staphylococcus aureus; test: Bactericidal activity against methicillin susceptible Staphylococcus aureus clinical isolate 3 incubated overnight by CLSI protocol based assay; details: read-out: MBC>99.9
[24] = system: Pseudomonas aeruginosa; test: Antibacterial activity against Pseudomonas aeruginosa ATCC 27853 assessed as inhibition of bacterial growth incubated overnight by CLSI protocol based assay; details: read-out: MIC100
[25] = system: Staphylococcus aureus; test: Antibacterial activity against methicillin resistant Staphylococcus aureus clinical isolate 1 assessed as inhibition of bacterial growth incubated overnight by CLSI protocol based assay; details: read-out: MIC100
[26] = system: Staphylococcus aureus; test: Bactericidal activity against methicillin resistant Staphylococcus aureus clinical isolate 4 incubated overnight by CLSI protocol based assay; details: read-out: MBC>99.9
[27] = system: Staphylococcus aureus; test: Antibacterial activity against Staphylococcus aureus assessed as inhibition of bacterial growth

Question: Which results are given for O=C(C1=NC[C@H](c2c[nH]c3cc(Br)ccc23)N1)c1c[nH]c2cc(Br)ccc12 (racemic)?
Answer: MBC [1]: > 128 µg/mL; MBC [2]: > 128 µg/mL; MBC [3]: 4 µg/mL (≈ 8.23 µM); MBC [4]: 16 µg/mL (≈ 32.9 µM); MBC [5]: 128 µg/mL (≈ 263 µM); MIC [6]: 2 µg/mL (≈ 4.11 µM); MBC [7]: > 128 µg/mL; MBC [8]: 64 µg/mL (≈ 132 µM); MIC [9]: 2 µg/mL (≈ 4.11 µM); MIC [10]: 2 µg/mL (≈ 4.11 µM); MIC [11]: 2 µg/mL (≈ 4.11 µM); MBC [12]: > 128 µg/mL; MIC [13]: > 128 µg/mL; MIC [14]: 2 µg/mL (≈ 4.11 µM); MBC [15]: 32 µg/mL (≈ 65.8 µM); MIC [16]: 2 µg/mL (≈ 4.11 µM); MBC [17]: 8 µg/mL (≈ 16.5 µM); MIC [18]: 2 µg/mL (≈ 4.11 µM); MBC [19]: > 128 µg/mL; MIC [20]: 2 µg/mL (≈ 4.11 µM); MIC [21]: 2 µg/mL (≈ 4.11 µM); MIC [22]: 2 µg/mL (≈ 4.11 µM); MBC [23]: > 128 µg/mL; MIC [24]: > 128 µg/mL; MIC [25]: 2 µg/mL (≈ 4.11 µM)

Question: Which MBC [1] does the source give for Brc1ccc2c(C(C3=NC[C@H](c4c[nH]c5cc(Br)ccc45)N3)c3c[nH]c4cc(Br)ccc34)c[nH]c2c1 here?
Answer: The MBC was 2 µg/mL (≈ 3 µM).

Question: What about the MBC [26] of the same molecule?
Answer: The MBC was 16 µg/mL (≈ 24 µM).

Question: What about the MBC [2] of the same molecule?
Answer: Its MBC is 32 µg/mL (≈ 48 µM).

Question: And the MBC [3]?
Answer: The MBC was 2 µg/mL (≈ 3 µM).

Question: What about the MBC [4] of the same molecule?
Answer: Its MBC is 16 µg/mL (≈ 24 µM).

Question: And the MBC [5]?
Answer: The MBC was 64 µg/mL (≈ 96.1 µM).

Question: What about the MIC [6] of the same molecule?
Answer: The MIC was 2 µg/mL (≈ 3 µM).

Question: What about the MBC [7] of the same molecule?
Answer: The MBC was 128 µg/mL (≈ 192 µM).

Question: And the MBC [8]?
Answer: Its MBC is 2 µg/mL (≈ 3 µM).

Question: And the MIC [9]?
Answer: Its MIC is 1 µg/mL (≈ 1.5 µM).

Question: What about the MIC [10] of the same molecule?
Answer: The MIC was 2 µg/mL (≈ 3 µM).

Question: What about the MIC [11] of the same molecule?
Answer: The MIC was 2 µg/mL (≈ 3 µM).

Question: What about the MBC [12] of the same molecule?
Answer: The MBC was 128 µg/mL (≈ 192 µM).

Question: What about the MIC [13] of the same molecule?
Answer: The MIC was 16 µg/mL (≈ 24 µM).

Question: And the MIC [14]?
Answer: Its MIC is 1 µg/mL (≈ 1.5 µM).

Question: And the MBC [15]?
Answer: The MBC was 16 µg/mL (≈ 24 µM).

Question: What about the MIC [16] of the same molecule?
Answer: The MIC was 2 µg/mL (≈ 3 µM).

Question: And the MBC [17]?
Answer: Its MBC is 4 µg/mL (≈ 6 µM).

Question: What about the MIC [18] of the same molecule?
Answer: The MIC was 2 µg/mL (≈ 3 µM).

Question: And the MBC [19]?
Answer: The MBC was greater than 128 µg/mL.

Question: What about the MIC [20] of the same molecule?
Answer: Its MIC is 1 µg/mL (≈ 1.5 µM).

Question: And the MIC [21]?
Answer: The MIC was 2 µg/mL (≈ 3 µM).

Question: And the MIC [22]?
Answer: Its MIC is 2 µg/mL (≈ 3 µM).

Question: What about the MBC [23] of the same molecule?
Answer: The MBC was 16 µg/mL (≈ 24 µM).

Question: And the MIC [27]?
Answer: Its MIC is 1 µg/mL (≈ 1.5 µM).

Question: And the MIC [24]?
Answer: The MIC was greater than 128 µg/mL.

Question: And the MIC [25]?
Answer: Its MIC is 2 µg/mL (≈ 3 µM).
